Like-named read-outs stand apart in the source and are kept apart here. Values belong to the compound of their own block, whether it stands above or below them.
Legend:
[1] = Tolerability and body weight in systemic efficacy studies
Method: For systemic drug efficacy studies, mice were enrolled when tumors reached an average volume of 150–200 mm^3. Assignment to treatment groups was carried out via stratified randomization. Tumor dimensions were measured twice a week using digital calipers along with recording of body weight. Tumor volume was calculated using formula V = π/6 (length x width x height) in mm^3 [46]. Animals were removed from the study when either any one of the three measured dimensions of the tumor exceeded 2 cm, volume exceeded 2000 mm^3, ulceration was observed or if body weight loss greater than 20% was recorded. […] Control cohorts were administered vehicles of both drugs, and each single agent cohort was administered the vehicle of the other drug.

[2] = cited from earlier work
[3] = test system: BCL-xL in OCI-LY10 cells; assay: Western blot for BCL-xL in ABC cell lines; assay type: cell-based; details: voruciclib 5 µM, venetoclax 50 nM or combination, 24 hours
Text: Error bars represent SEM.
ECL chemiluminescent substrate (Pierce) and autoradiographic film (ThermoFisher) were used for detection of signals. MCL-1 and BCL-xL signals were quantified using Image Studio Lite (LICOR Biosciences) using β actin for normalization. Student’s t-test was used to compare mean signal intensities across different conditions. The level of significance was set at 0.05.

[4] = Modelled plasma drug levels from Phase 1 pharmacokinetic data; details: humans, 250 mg/day oral, modelled from Phase 1 PK data
Method: (Fig. 2a). Predicted mean plasma levels, once steady state is achieved after about 5 oral doses, fluctuate between 2 and 3.5 μM with an average near 3 μM for our model parameters. […] This was accompanied by apoptosis as represented by cleaved PARP induction starting at 1-2 μM in all models (Figs 2c, S2 and S5). Complete MCL-1 repression was typically observed at 3 μM exposures. […] Maximum, average and minimum plasma levels are shown by the red, green and blue lines respectively. The parameter set derived from the PK data after 13/15 days dosing was used for the 15-day simulation for the steady state levels attained after repeat dosing. (b) Western blot analyses for RNA POL II ([…]), MCL-1, cPARP using protein lysates isolated from SU-DHL-4 cells. β actin was used as the loading control. […] Tumors were resected 4 hours after the final dose and processed for both Western blot and IHC analyses. β actin was used as loading control for the Western blot where each lane represents an individual tumor (Tumor (T) #1-9). MCL-1 signals, normalized to β actin, were quantified and the average MCL-1 signal for each condition relative to vehicle is shown in the corresponding bar graph. Error bars represent standard error of the mean (SEM). […] DAPI was used as counterstain for IHC. Representative images are shown. Scale bar: 1000 μm.

[5] = test system: MCL-1 and cPARP in U2932, RIVA, OCI-LY10, NU-DHL-1, SU-DHL-4 and SU-DHL-6 cells; assay: Western blot for MCL-1 and cPARP in DLBCL cell lines; assay type: cell-based; details: 0.5 µM–5 µM for 6 hours
Method: (§1) Maximum, average and minimum plasma levels are shown by the red, green and blue lines respectively. The parameter set derived from the PK data after 13/15 days dosing was used for the 15-day simulation for the steady state levels attained after repeat dosing. (b) Western blot analyses for RNA POL II (pSer2), MCL-1, cPARP using protein lysates isolated from SU-DHL-4 cells. β actin was used as the loading control. […] Tumors were resected 4 hours after the final dose and processed for both Western blot and IHC analyses. β actin was used as loading control for the Western blot where each lane represents an individual tumor (Tumor (T) #1-9). MCL-1 signals, normalized to β actin, were quantified and the average MCL-1 signal for each condition relative to vehicle is shown in the corresponding bar graph. Error bars represent standard error of the mean (SEM). Asterisks (*) denote p value < 0.05 calculated using the Student’s t-test for comparison of vehicle vs treatment. DAPI was used as counterstain for IHC. Representative images are shown. Scale bar: 1000 µm.
RI-1, also known as RIVA, U2932, NU-DHL-1 cell lines were purchased from DSMZ. SU-DHL-4, SU-DHL-6 were purchased from ATCC. All lines were cultured in RPMI 1640 with L-Glutamine (ThermoFisher),10% fetal bovine serum (Thermofisher), at 37 degrees Celsius, 5% CO2. […]

[6] = test system: MCL-1 in OCI-LY10 xenograft; assay: Western blot and IHC for MCL-1 in tumors after oral dosing; assay type: in vivo, mice; details: 100 mpk or 200 mpk oral daily for 5 days, tumors resected 4 hours after final dose
Method: as §1, with “µm. […]” for “µm.”

[7] = molecular target: T1, CDK1/cyc B (Homo sapiens, UniProt P06493); assay: Reaction Biology radiometric filter binding kinase assay (10-point IC50 converted to Ki); assay type: biochemical; details: ATP near Km; Ki calculated from 10-point IC50
T1 construct: purchased Reaction Biology Corp (contract assay)
Method: (§2) Ki values for each target were calculated and compared for the two drugs (Fig. 1b–d).
(§3) The ATP concentration was near the Km values for the respective kinases. For each kinase, an IC50 value was calculated from a 10-point concentration curve of the test article and converted to Ki values.

[8] = molecular target: T2, CDK4/cyc D1 (Homo sapiens, UniProt P11802); assay: as above; assay type: biochemical; details: ATP near Km; Ki calculated from 10-point IC50
T2 construct: purchased Reaction Biology Corp (contract assay)
Method: as §2, §3

[9] = molecular target: T3, MAK (Homo sapiens, UniProt P20794); assay: as above; assay type: biochemical; details: ATP near Km; Ki calculated from 10-point IC50
T3 construct: purchased Reaction Biology Corp (contract assay)
T3 sequence (P20794 1-623): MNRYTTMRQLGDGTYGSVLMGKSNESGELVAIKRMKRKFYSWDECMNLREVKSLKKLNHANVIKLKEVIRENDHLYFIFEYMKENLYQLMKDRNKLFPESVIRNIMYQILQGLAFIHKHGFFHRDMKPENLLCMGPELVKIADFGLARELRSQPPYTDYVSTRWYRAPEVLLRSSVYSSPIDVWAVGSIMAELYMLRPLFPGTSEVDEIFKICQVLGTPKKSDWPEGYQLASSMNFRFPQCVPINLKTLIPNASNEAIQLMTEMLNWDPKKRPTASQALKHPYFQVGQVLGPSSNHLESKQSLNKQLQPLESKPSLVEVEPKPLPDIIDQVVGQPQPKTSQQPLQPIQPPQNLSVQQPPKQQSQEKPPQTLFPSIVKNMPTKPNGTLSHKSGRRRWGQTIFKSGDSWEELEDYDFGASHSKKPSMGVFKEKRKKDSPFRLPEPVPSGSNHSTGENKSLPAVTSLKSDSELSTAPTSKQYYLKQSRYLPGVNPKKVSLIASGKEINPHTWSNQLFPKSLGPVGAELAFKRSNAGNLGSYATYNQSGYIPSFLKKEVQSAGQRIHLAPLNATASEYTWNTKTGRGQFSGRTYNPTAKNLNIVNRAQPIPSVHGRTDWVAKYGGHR
Method: as §2, §3

[10] = molecular target: T4, ICK (Homo sapiens, UniProt Q9UPZ9); assay: as above; assay type: biochemical; details: ATP near Km; Ki calculated from 10-point IC50
T4 construct: purchased Reaction Biology Corp (contract assay)
T4 sequence (Q9UPZ9 1-632): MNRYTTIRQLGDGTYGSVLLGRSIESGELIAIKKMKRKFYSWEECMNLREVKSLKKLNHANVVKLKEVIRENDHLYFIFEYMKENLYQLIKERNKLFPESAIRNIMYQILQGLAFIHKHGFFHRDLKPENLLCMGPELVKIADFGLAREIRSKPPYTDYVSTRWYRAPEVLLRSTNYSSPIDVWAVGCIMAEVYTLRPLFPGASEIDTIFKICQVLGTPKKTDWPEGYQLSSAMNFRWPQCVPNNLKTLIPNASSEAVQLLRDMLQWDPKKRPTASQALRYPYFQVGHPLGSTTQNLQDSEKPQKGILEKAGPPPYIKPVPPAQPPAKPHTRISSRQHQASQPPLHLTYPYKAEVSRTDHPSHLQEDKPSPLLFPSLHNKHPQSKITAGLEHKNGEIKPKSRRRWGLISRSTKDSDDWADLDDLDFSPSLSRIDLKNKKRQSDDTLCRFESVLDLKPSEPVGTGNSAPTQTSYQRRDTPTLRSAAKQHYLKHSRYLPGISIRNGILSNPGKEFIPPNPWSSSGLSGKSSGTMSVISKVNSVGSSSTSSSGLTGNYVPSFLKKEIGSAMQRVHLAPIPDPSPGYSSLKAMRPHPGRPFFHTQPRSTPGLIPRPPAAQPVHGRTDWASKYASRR
Method: as §2, §3

[11] = molecular target: T5, CDK1/cyc A (Homo sapiens, UniProt P06493); assay: as above; assay type: biochemical; details: ATP near Km; Ki calculated from 10-point IC50
T5 construct: purchased Reaction Biology Corp (contract assay)
Method: as §2, §3

[12] = molecular target: T6, CDK6/cyc D1 (Homo sapiens, UniProt Q00534); assay: as above; assay type: biochemical; details: ATP near Km; Ki calculated from 10-point IC50
T6 construct: purchased Reaction Biology Corp (contract assay)
Method: as §2, §3

[13] = design: method as in earlier work; details: 350 mg/day, one patient out of 24; cited from earlier work
[14] = test system: BCL-xL in OCI-LY10 xenograft; assay: Western blot for BCL-xL in tumor lysates after oral dosing; assay type: in vivo, mice; details: 100 mpk or 200 mpk oral gavage for 5 days, compared to vehicle
Text: Each lane represents an individual tumor (Tumor (T) #1–9). BCL-xl signals, normalized to β actin, were quantified and the average BCL-xl signal for each condition relative to vehicle is shown in the corresponding bar graph. Error bars represent SEM. Asterisks (*) denote p value < 0.05 calculated using the Student’s t-test for comparison of vehicle vs treatment.
20 micrograms of protein lysate from each condition were subjected to SDS-PAGE and transferred to 0.45 micron PVDF membranes (ThermoFisher) using manufacturer’s protocol, blocked for one hour in 5% milk at room temperature, probed with primary antibodies for cPARP (rabbit CST 5625), MCL-1 (rabbit CST 39224) or BCL-xL (rabbit CST 2764), followed by corresponding HRP-conjugated secondary antibodies (Jackson ImmunoResearch). β actin (mouse CST 12262) was used as loading control. ECL chemiluminescent substrate (Pierce) and autoradiographic film (ThermoFisher) were used for detection of signals. MCL-1 and BCL-xL signals were quantified using Image Studio Lite (LICOR Biosciences) using β actin for normalization. Student’s t-test was used to compare mean signal intensities across different conditions. The level of significance was set at 0.05.

[15] = test system: RNA POL II (pSer2); assay: Western blot for RNA POL II (pSer2) in SU-DHL-4 cells; assay type: cell-based
[16] = test system: relapsed or refractory non-Hodgkin lymphoma (NHL); design: method as in PMID 28095146; details: relapsed or refractory NHL patients, venetoclax alone; cited from earlier work

T6 sequence (Q00534 whole entry): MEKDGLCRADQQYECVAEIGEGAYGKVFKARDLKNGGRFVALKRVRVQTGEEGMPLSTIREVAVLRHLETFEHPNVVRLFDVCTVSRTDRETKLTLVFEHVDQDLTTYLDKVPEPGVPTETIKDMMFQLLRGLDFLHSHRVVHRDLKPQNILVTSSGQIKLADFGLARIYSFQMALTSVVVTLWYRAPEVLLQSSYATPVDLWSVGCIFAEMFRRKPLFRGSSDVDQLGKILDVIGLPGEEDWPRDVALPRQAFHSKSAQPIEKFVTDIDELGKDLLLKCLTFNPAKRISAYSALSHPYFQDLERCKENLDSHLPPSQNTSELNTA
T6 sequence (P24385 whole entry partner): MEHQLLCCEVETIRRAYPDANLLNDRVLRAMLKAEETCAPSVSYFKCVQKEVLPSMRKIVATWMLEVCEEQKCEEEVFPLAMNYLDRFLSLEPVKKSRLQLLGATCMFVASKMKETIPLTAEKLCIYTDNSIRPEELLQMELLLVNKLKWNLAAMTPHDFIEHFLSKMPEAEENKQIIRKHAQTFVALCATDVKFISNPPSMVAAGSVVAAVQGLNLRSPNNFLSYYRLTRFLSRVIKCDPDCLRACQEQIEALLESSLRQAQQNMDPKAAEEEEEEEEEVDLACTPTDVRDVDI
T5 sequence (P06493 whole entry): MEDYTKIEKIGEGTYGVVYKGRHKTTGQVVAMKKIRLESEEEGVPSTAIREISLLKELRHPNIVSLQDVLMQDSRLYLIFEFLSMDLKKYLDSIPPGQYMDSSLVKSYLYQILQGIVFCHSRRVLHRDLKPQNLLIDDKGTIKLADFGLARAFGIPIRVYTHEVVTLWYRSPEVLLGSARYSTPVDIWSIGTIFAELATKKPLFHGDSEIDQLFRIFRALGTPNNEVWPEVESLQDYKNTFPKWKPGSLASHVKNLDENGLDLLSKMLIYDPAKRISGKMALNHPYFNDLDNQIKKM
T5 sequence (P20248 whole entry partner): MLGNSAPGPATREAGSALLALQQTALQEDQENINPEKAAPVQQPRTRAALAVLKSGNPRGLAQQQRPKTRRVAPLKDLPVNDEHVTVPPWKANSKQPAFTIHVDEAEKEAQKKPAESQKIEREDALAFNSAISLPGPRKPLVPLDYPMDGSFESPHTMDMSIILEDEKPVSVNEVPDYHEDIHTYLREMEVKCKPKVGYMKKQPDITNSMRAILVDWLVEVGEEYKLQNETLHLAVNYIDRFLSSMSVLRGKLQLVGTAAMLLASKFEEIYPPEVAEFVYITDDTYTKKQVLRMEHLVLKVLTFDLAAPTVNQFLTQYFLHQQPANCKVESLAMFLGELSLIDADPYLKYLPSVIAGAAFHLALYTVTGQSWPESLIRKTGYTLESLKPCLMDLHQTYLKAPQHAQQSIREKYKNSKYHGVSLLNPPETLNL
T1 sequence (P06493 whole entry): as the sequence (P06493 whole entry) above
T1 sequence (P14635 whole entry partner): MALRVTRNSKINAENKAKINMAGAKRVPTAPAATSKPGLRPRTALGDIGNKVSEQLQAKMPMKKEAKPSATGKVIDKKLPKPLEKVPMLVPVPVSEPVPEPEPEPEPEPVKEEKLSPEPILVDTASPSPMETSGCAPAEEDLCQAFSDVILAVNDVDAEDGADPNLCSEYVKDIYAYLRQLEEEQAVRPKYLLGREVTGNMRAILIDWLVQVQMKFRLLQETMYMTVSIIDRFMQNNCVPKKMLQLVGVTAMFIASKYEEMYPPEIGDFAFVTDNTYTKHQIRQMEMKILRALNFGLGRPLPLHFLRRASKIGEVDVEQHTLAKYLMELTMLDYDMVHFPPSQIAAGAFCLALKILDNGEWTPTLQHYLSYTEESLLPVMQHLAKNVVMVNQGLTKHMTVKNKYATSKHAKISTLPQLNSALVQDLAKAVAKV
T2 sequence (P11802 whole entry): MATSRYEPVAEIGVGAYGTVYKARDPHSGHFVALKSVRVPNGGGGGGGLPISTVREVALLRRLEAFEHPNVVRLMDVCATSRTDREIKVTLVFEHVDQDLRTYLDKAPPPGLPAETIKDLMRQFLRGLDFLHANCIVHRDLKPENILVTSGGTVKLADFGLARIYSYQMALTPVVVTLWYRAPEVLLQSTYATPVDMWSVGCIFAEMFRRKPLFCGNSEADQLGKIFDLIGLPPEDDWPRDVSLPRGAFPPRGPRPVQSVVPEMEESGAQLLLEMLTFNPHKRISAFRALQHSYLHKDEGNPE
T2 sequence (P24385 whole entry partner): as the sequence (P24385 whole entry partner) above

SMILES: CN1CC[C@@H](c2c(O)cc(O)c3c(=O)cc(-c4ccc(C(F)(F)F)cc4Cl)oc23)[C@@H]1CO [Voruciclib]
tolerability, toxicity and body weight changes ([1]; mouse, in vivo, po): not induce any significant body weight changes
oral bioavailability ([2]; has been shown, reference not given): orally bioavailable
BCL-xL levels in cell lysates [3]: elevated levels of BCL-xL
Predicted mean plasma levels at steady state (average) [4]: ~3 µM
exposure giving complete MCL-1 repression ([5]; 6 DLBCL models): ~3 µM
concentration at which cleaved PARP induction (apoptosis) starts ([5]; all 6 DLBCL models): 1 to 2 µM
MCL-1 protein expression in tumors [6]: decreased in a dose-dependent manner
Ki [7]: 5.4 nM
Ki [8]: 3.96 nM
Ki [9]: 259 nM
Ki [10]: 481 nM
Ki [11]: 9.1 nM
Ki [12]: 2.92 nM
patients with dose-limiting diarrhea [13]: 4%
BCL-xL levels in tumor lysates [14]: elevated levels of BCL-xL
phosphorylation of RNA POL II [15]: inhibition of phosphorylation of RNA POL II

Ki [9]: 1.08 nM
Ki [10]: 11.8 nM
SMILES: CN1CC[C@H](c2c(O)cc(O)c3c(=O)cc(-c4ccccc4Cl)oc23)[C@H](O)C1 [Flavopiridol, reference compound]
oral bioavailability [2]: neither of these two agents are orally bioavailable

SMILES: CC1(C)CCC(CN2CCN(c3ccc(C(=O)NS(=O)(=O)c4ccc(NCC5CCOCC5)c([N+](=O)[O-])c4)c(Oc4cnc5[nH]ccc5c4)c3)CC2)=C(c2ccc(Cl)cc2)C1 [Venetoclax, reference compound]
tolerability, toxicity and body weight changes ([1]; xenografted mice (U2932, RIVA, OCI-LY10, NU-DHL-1, SU-DHL-4), oral regimens, first two cycles of treatment): not induce any significant body weight changes
BCL-xL levels in cell lysates [3]: elevated levels of BCL-xL
median progression-free survival [16]: 1 month
overall response rate [16]: 18%

SMILES: CCc1cnn2c(NCc3ccc[n+]([O-])c3)cc(N3CCCC[C@H]3CCO)nc12 [dinaciclib]
oral bioavailability [2]: neither of these two agents are orally bioavailable

Source: PMC5740070 (Scientific Reports, 2017)
